# Experimental data: ChEMBL document CHEMBL5579851, “Synthesis and antifungal evaluation of novel triazole derivatives bearing a pyrazole-methoxyl moiety” (Eur J Med Chem, 2024)
# Active and inactive are the calls of the source. No cut-off for these calls is given here.
# Legend:
# Candida albicans [1] = test: Antifungal activity against Candida albicans SC5314 assessed as inhibition of fungal growth incubated for 48 hrs by CLSI based broth microdilution assay; assay type: functional
# Candida albicans [2] = test: Antifungal activity against Candida albicans 10231 assessed as inhibition of fungal growth incubated for 48 hrs by CLSI based broth microdilution assay; assay type: functional
# Cryptococcus neoformans = test: Antifungal activity against Cryptococcus neoformans 32609 assessed as inhibition of fungal growth incubated for 72 hrs by CLSI based broth microdilution assay; assay type: functional
# Nakaseomyces glabratus = test: Antifungal activity against Candida glabrata 537 assessed as inhibition of fungal growth incubated for 48 hrs by CLSI based broth microdilution assay; assay type: functional
# Candida parapsilosis = test: Antifungal activity against Candida parapsilosis 22019 assessed as inhibition of fungal growth incubated for 48 hrs by CLSI based broth microdilution assay; assay type: functional; conditions: Lodderomyces parapsilosis
# Pichia kudriavzevii = test: Antifungal activity against Candida krusei 4996 assessed as inhibition of fungal growth incubated for 48 hrs by CLSI based broth microdilution assay; assay type: functional
# Candida tropicalis = test: Antifungal activity against Candida tropicalis 8915 assessed as inhibition of fungal growth incubated for 48 hrs by CLSI based broth microdilution assay; assay type: functional
# Candida albicans [3] = test: Antifungal activity against fluconazole-resistant Candida albicans 901 assessed as inhibition of fungal growth incubated for 48 hrs by CLSI based broth microdilution assay; assay type: functional
# Candida albicans [4] = test: Antifungal activity against fluconazole-resistant Candida albicans 904 assessed as inhibition of fungal growth incubated for 48 hrs by CLSI based broth microdilution assay; assay type: functional
# [Candida] auris [5] = Antifungal activity against fluconazole-resistant Candida auris 891 assessed as inhibition of fungal growth incubated for 48 hrs by CLSI based broth microdilution assay; assay type: functional; conditions: Candidozyma auris
# [Candida] auris [6] = Antifungal activity against fluconazole-resistant Candida auris 918 assessed as inhibition of fungal growth incubated for 48 hrs by CLSI based broth microdilution assay; assay type: functional; conditions: Candidozyma auris
# [Candida] auris [7] = Antifungal activity against fluconazole-resistant Candida auris 919 assessed as inhibition of fungal growth incubated for 48 hrs by CLSI based broth microdilution assay; assay type: functional; conditions: Candidozyma auris
# Saccharomyces cerevisiae [8] = test: Antifungal activity against recombinant Saccharomyces cerevisiae Y525 overexpressing CaMdr1 assessed as inhibition of fungal growth incubated for 48 hrs by CLSI based broth microdilution assay; assay type: functional
# Saccharomyces cerevisiae [9] = test: Antifungal activity against recombinant Saccharomyces cerevisiae Y570 overexpressing CaCdr1 assessed as inhibition of fungal growth incubated for 48 hrs by CLSI based broth microdilution assay; assay type: functional
# Saccharomyces cerevisiae [10] = test: Antifungal activity against recombinant Saccharomyces cerevisiae Y2765 overexpressing CauMdr1 assessed as inhibition of fungal growth incubated for 48 hrs by CLSI based broth microdilution assay; assay type: functional
# Saccharomyces cerevisiae [11] = test: Antifungal activity against recombinant Saccharomyces cerevisiae Y2766 overexpressing CauCdr1 assessed as inhibition of fungal growth incubated for 48 hrs by CLSI based broth microdilution assay; assay type: functional
# Saccharomyces cerevisiae [12] = test: Antifungal activity against recombinant Saccharomyces cerevisiae Y2411 overexpressing ScErg11 assessed as inhibition of fungal growth incubated for 48 hrs by CLSI based broth microdilution assay; assay type: functional
# Saccharomyces cerevisiae [13] = test: Antifungal activity against recombinant Saccharomyces cerevisiae Y2300 overexpressing ScErg11 assessed as inhibition of fungal growth incubated for 48 hrs by CLSI based broth microdilution assay; assay type: functional
# Saccharomyces cerevisiae [14] = test: Antifungal activity against recombinant Saccharomyces cerevisiae Y2462 overexpressing ScErg11/ScNcp1 assessed as inhibition of fungal growth incubated for 48 hrs by CLSI based broth microdilution assay; assay type: functional
# Saccharomyces cerevisiae [15] = test: Antifungal activity against recombinant Saccharomyces cerevisiae Y2459 overexpressing CaErg11/CaCpr assessed as inhibition of fungal growth incubated for 48 hrs by CLSI based broth microdilution assay; assay type: functional
# Saccharomyces cerevisiae [16] = test: Antifungal activity against recombinant Saccharomyces cerevisiae Y2374 overexpressing CgErg11 assessed as inhibition of fungal growth incubated for 48 hrs by CLSI based broth microdilution assay; assay type: functional
# Saccharomyces cerevisiae [17] = test: Antifungal activity against recombinant Saccharomyces cerevisiae Y2721 overexpressing CpErg11/CpCpr assessed as inhibition of fungal growth incubated for 48 hrs by CLSI based broth microdilution assay; assay type: functional
# Saccharomyces cerevisiae [18] = test: Antifungal activity against recombinant Saccharomyces cerevisiae Y2767 overexpressing CauErg11 assessed as inhibition of fungal growth incubated for 48 hrs by CLSI based broth microdilution assay; assay type: functional
# Saccharomyces cerevisiae [19] = test: Antifungal activity against recombinant Saccharomyces cerevisiae Y2711 overexpressing CnErg11 assessed as inhibition of fungal growth incubated for 48 hrs by CLSI based broth microdilution assay; assay type: functional
# Saccharomyces cerevisiae [20] = test: Antifungal activity against recombinant Saccharomyces cerevisiae Y2301 overexpressing ScErg11 Y140F mutant assessed as inhibition of fungal growth incubated for 48 hrs by CLSI based broth microdilution assay; assay type: functional
# Saccharomyces cerevisiae [21] = test: Antifungal activity against recombinant Saccharomyces cerevisiae Y2513 overexpressing ScErg11 Y140H mutant assessed as inhibition of fungal growth incubated for 48 hrs by CLSI based broth microdilution assay; assay type: functional
# Saccharomyces cerevisiae [22] = test: Antifungal activity against recombinant Saccharomyces cerevisiae Y2716 overexpressing CpErg11 Y132F mutant/ CpCpr assessed as inhibition of fungal growth incubated for 48 hrs by CLSI based broth microdilution assay; assay type: functional
# Saccharomyces cerevisiae [23] = test: Antifungal activity against recombinant Saccharomyces cerevisiae Y2768 overexpressing CauErg11 T132F mutant assessed as inhibition of fungal growth incubated for 48 hrs by CLSI based broth microdilution assay; assay type: functional
# Saccharomyces cerevisiae [24] = test: Antifungal activity against recombinant Saccharomyces cerevisiae Y2769 overexpressing CauErg11 K143R mutant assessed as inhibition of fungal growth incubated for 48 hrs by CLSI based broth microdilution assay; assay type: functional
# Candida albicans [25] = test: Antifungal activity against Candida albicans SC5314 assessed as inhibition of fungal growth at 0.125 ug/ml after 12 hrs by TECAN plate reader analysis; assay type: functional, organism-based; conditions: dose 0.125 µg/ml
# Candida albicans [26] = test: Antifungal activity against Candida albicans SC5314 assessed as inhibition of fungal growth at 2 ug/ml after 36 hrs by TECAN plate reader analysis; assay type: functional, organism-based; conditions: dose 2.0 µg/ml
# Candida albicans [27] = test: Antifungal activity against Candida albicans SC5314 assessed as inhibition of hyphae formation at 0.0625 to 0.5 ug/ml after 3 hrs by inverted microscopic analysis; assay type: functional, organism-based; conditions: dose 0.0625-0.5 µg/ml
# Candida albicans [28] = test: Antifungal activity against Candida albicans SC5314 assessed as inhibition of hyphae length at 0.0625 to 0.5 ug/ml after 3 hrs by inverted microscopic analysis; assay type: functional, organism-based; conditions: dose 0.0625-0.5 µg/ml
# Candida albicans [29] = test: Antifungal activity against Candida albicans SC5314 assessed as inhibition of hyphae length at 1 ug/ml after 3 hrs by inverted microscopic analysis; assay type: functional, organism-based; conditions: dose 1.0 µg/ml
# Candida albicans [30] = test: Antifungal activity against Candida albicans SC5314 assessed as inhibition of hyphae formation by measuring pseudohyphae at 1 ug/ml after 3 hrs by inverted microscopic analysis; assay type: functional, organism-based; conditions: dose 1.0 µg/ml
# Candida albicans [31] = test: Antibiofilm activity against Candida albicans SC5314 assessed as inhibition of biofilm formation at 64 ug/mL incubated for 24 hrs by XTT assay relative to control; assay type: functional
# Candida albicans [32] = test: Antibiofilm activity against Candida albicans SC5314 assessed as increase in matured biofilm distruption at 64 ug/ml incubated for 24 hrs by XTT assay relative to control; assay type: functional; conditions: dose 64 µg/ml
# [33] = target: T1, Lanosterol 14-alpha demethylase (Candida albicans (strain SC5314 / ATCC MYA-2876) (Yeast), UniProt P10613); test: Inhibition of CYP51 in Candida albicans SC5314 assessed as ergosterol level at 0.5 ug/ml after 8 hrs by GC-MS analysis (reference value: 86.2 %); set-up: scale not given: the % may be the effect or the level left; conditions: at 0.5 µg/mL
# T1 sequence (P10613 whole entry): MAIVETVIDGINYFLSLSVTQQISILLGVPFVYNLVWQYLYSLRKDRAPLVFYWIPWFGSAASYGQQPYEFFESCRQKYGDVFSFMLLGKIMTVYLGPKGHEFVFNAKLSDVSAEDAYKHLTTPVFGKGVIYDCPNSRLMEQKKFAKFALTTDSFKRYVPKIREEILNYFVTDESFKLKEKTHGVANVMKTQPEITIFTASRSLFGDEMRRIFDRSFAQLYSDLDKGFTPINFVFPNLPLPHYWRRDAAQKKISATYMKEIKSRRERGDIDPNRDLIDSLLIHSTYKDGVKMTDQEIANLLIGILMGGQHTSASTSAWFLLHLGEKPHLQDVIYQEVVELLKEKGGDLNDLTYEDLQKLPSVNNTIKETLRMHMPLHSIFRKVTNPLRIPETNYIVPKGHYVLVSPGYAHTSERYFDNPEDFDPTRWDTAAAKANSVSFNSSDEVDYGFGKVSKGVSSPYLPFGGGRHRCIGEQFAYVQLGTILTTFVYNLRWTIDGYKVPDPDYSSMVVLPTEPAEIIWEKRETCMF
# [34] = target: T1, Lanosterol 14-alpha demethylase; test: Inhibition of CYP51 in Candida albicans SC5314 assessed as lanosterol level at 0.5 ug/ml after 8 hrs by GC-MS analysis (reference value: 5.9 %); set-up: scale not given: the % may be the effect or the level left; conditions: at 0.5 µg/mL
# [35] = target: T1, Lanosterol 14-alpha demethylase; test: Inhibition of CYP51 in Candida albicans SC5314 assessed as eburicol level at 0.5 ug/ml after 8 hrs by GC-MS analysis relative to control; set-up: scale not given: the % may be the effect or the level left; conditions: at 0.5 µg/mL
# [36] = target: T1, Lanosterol 14-alpha demethylase; test: Inhibition of CYP51 in Candida albicans SC5314 assessed as obtusifoliol level at 0.5 ug/ml after 8 hrs by GC-MS analysis relative to control; set-up: scale not given: the % may be the effect or the level left; conditions: at 0.5 µg/mL
# [37] = target: T1, Lanosterol 14-alpha demethylase; test: Inhibition of CYP51 in Candida albicans SC5314 assessed as 14alpha-methylfecosterol level at 0.5 ug/ml after 8 hrs by GC-MS analysis relative to control; set-up: scale not given: the % may be the effect or the level left; conditions: at 0.5 µg/mL
# Cell membrane [38] = test: Induction of membrane permeabilization in Candida albicans SC5314 assessed as increase in fluorescence at 0.5 ug/ml incubated for 8 hrs by propidium iodide staining based fluorescence microscopic analysis; conditions: dose 0.5 µg/ml
# Cell membrane [39] = test: Induction of membrane permeabilization in Candida albicans SC5314 assessed as increase in fluorescence at 4 ug/ml incubated for 8 hrs by propidium iodide staining based fluorescence microscopic analysis; conditions: dose 4.0 µg/ml
# [40] = Cytotoxicity against HUVEC cells assessed as cell viability at 128 ug/ml incubated for 24 hrs by CCK-8 assay relative to control; assay type: toxicity, cell-based; conditions: human, at 128 µg/mL, read-out: Activity
structure (smiles),measurement,setting,value
OC(Cn1cncn1)(Cn1cncn1)c1ccc(F)cc1F [FLUCONAZOLE],MIC,Candida albicans [1],0.5 µg/mL
same,MIC,Candida albicans [2],> 64 µg/mL
same,MIC,Cryptococcus neoformans,2 µg/mL
same,MIC,Nakaseomyces glabratus,1 µg/mL
same,MIC,Candida parapsilosis,4 µg/mL
same,MIC,Pichia kudriavzevii,64 µg/mL
same,MIC,Candida tropicalis,> 64 µg/mL
same,MIC,Candida albicans [3],> 256 µg/mL
same,MIC,Candida albicans [4],> 256 µg/mL
same,MIC,[Candida] auris [5],> 256 µg/mL
same,MIC,[Candida] auris [6],> 256 µg/mL
same,MIC,[Candida] auris [7],> 256 µg/mL
same,MIC,Saccharomyces cerevisiae [8],> 64 µg/mL
same,MIC,Saccharomyces cerevisiae [9],> 64 µg/mL
same,MIC,Saccharomyces cerevisiae [10],64 µg/mL
same,MIC,Saccharomyces cerevisiae [11],> 64 µg/mL
same,MIC,Saccharomyces cerevisiae [12],1 µg/mL
same,MIC,Saccharomyces cerevisiae [13],4 µg/mL
same,MIC,Saccharomyces cerevisiae [14],8 µg/mL
same,MIC,Saccharomyces cerevisiae [15],2 µg/mL
same,MIC,Saccharomyces cerevisiae [16],4 µg/mL
same,MIC,Saccharomyces cerevisiae [17],4 µg/mL
same,MIC,Saccharomyces cerevisiae [18],4 µg/mL
same,MIC,Saccharomyces cerevisiae [19],0.5 µg/mL
same,MIC,Saccharomyces cerevisiae [20],4 µg/mL
same,MIC,Saccharomyces cerevisiae [21],4 µg/mL
same,MIC,Saccharomyces cerevisiae [22],8 µg/mL
same,MIC,Saccharomyces cerevisiae [23],64 µg/mL
same,MIC,Saccharomyces cerevisiae [24],32 µg/mL
same,inhibition,Candida albicans [25],inactive
same,inhibition,Candida albicans [26],inactive
same,inhibition,Candida albicans [27],inactive
same,inhibition,Candida albicans [28],inactive
same,inhibition,Candida albicans [29],Active
same,inhibition,Candida albicans [30],Active
same,inhibition at 64 µg/mL,Candida albicans [31],~28%
same,Activity,Candida albicans [32],38%
same,Activity,[33],39.8%
same,Activity,[34],38%
same,Activity,[35],2%
same,Activity,[36],2%
same,Activity,[37],20%
same,Activity,Cell membrane [38],inactive
same,Activity,Cell membrane [39],Active
same,"viability at 24 h, 128 ug/ml",[40],83%
